Source: patent publication US5990101A, “Carbapenem derivatives” (Meiji Seika Kabushiki Kaisha, priority 1995, dated 1999)
Each block holds one compound with its values, some of them ahead of it.

Key:
[1] = tested on: renal dehydropeptidase-1 (DHP-1); conditions: background art; cited from earlier work
K. pneumoniae PC1602 = assay: Antibacterial activity (MIC, two-fold method), K. pneumoniae PC1602; type: cell-based; parameters: unit not given here
S. marcescens GN10857 = assay: Antibacterial activity (MIC, two-fold method), S. marcescens GN10857; type: cell-based; parameters: unit not given here
Ps. aeruginosa E-2 = assay: Antibacterial activity (MIC, two-fold method), Ps. aeruginosa E-2; type: cell-based; parameters: unit not given here
S. aureus 209P JC-1 = assay: Antibacterial activity (MIC, two-fold method), S. aureus 209P JC-1; type: cell-based; parameters: unit not given here
E. cloacae GN747 = assay: Antibacterial activity (MIC, two-fold method), E. cloacae GN747; type: cell-based; parameters: unit not given here
Ps. aeruginosa M-0148 = assay: Antibacterial activity (MIC, two-fold method), Ps. aeruginosa M-0148; type: cell-based; parameters: unit not given here
S. aureus M126 = assay: Antibacterial activity (MIC, two-fold method), S. aureus M126 (methicillin-resistant); type: cell-based; parameters: unit not given here
Excerpt: *: Methicillinresistant Staphylococcus aureus-

C. freudii GN346 = assay: Antibacterial activity (MIC, two-fold method), C. freudii GN346; type: cell-based; parameters: unit not given here
E. faecalis W-73 = assay: Antibacterial activity (MIC, two-fold method), E. faecalis W-73; type: cell-based; parameters: unit not given here
P. vulgaris GN76 = assay: Antibacterial activity (MIC, two-fold method), P. vulgaris GN76; type: cell-based; parameters: unit not given here
E. coli 255 = assay: Antibacterial activity (MIC, two-fold method), E. coli 255; type: cell-based; parameters: unit not given here
E. coli NIHJ JC-2 = assay: Antibacterial activity (MIC, two-fold method), E. coli NIHJ JC-2; type: cell-based; parameters: unit not given here
Acute toxicity = type: in vivo; conditions: three ICR male mice, 1500 mg/kg i.v.

Compound: C[C@@H](O)[C@H]1C(=O)N2C(C(=O)O)=C(SCCN=CN)C[C@H]12 [Imipenem]
stability against renal dehydropeptidase-1 (DHP-1) [1]: instability

MIC (K. pneumoniae PC1602): 0.20
MIC (S. marcescens GN10857): 0.39
MIC (Ps. aeruginosa E-2): 3.13
MIC (S. aureus 209P JC-1): < 0.025
MIC (E. cloacae GN747): 0.20
MIC (Ps. aeruginosa M-0148): 3.13
MIC (S. aureus M126): 6.25
MIC (C. freudii GN346): 0.10
MIC (E. faecalis W-73): 6.25
MIC (P. vulgaris GN76): 0.78
MIC (E. coli 255): 0.20
MIC (E. coli NIHJ JC-2): 0.20
Compound: C[C@@H](O)[C@H]1C(=O)N2C(C(=O)[O-])=C(Cn3cc4sc(C(N)=O)c[n+]4c3)[C@H](C)[C@H]12 [Example 68, (1S,5R,6S)-6-[(1R)-1-hydroxyethyl]-2-(2-carbamoylimidazo[5,1-b]thiazolium-6-yl)methyl-1-methyl-1-carbapen-2-em-3-carboxylate]

Compound: C[C@@H](O)[C@H]1C(=O)N2C(C(=O)[O-])=C(C[n+]3cc4scc(CNS(N)(=O)=O)n4c3)[C@H](C)[C@H]12 [Example 14, (1S,5R,6S)-6-[(1R)-1-hydroxyethyl]-2-[3-(aminosulfonyl)aminomethylimidazo[5,1-b]thiazolium-6-yl]methyl-1-methyl-1-carbapen-2-em-3-carboxylate]
survival (acute toxicity) (Acute toxicity): All the animal survived
